PubChem BioAssay (NCI)
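Dose response: 5 concentrations. Exposure: 48 h. Format: 96-well plates. Endpoint: linear interpolation; highest concentration if not reached. TGI: concentration producing complete growth inhibition.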

What follows are compounds tested on UACC-62 melanoma (assay: NCI-60 cell line screen, 48 h).

Structure (SMILES) | TGI [µM]
CN(Nc1cc(=O)[nH]c(=O)[nH]1)c1ccccc1 | > 100
Cc1ccc(S(=O)(=O)C2=Cc3ccc(C(F)(F)F)cc3C2(O)c2cccc(C(F)(F)F)c2)cc1 (stereo unspecified) | 5.71
CC(C)=CCS(=O)c1ccccc1NC1=CC(=O)CC(C)(C)C1 (stereo unspecified) | > 100
Cc1cn2c(=O)c3ccccc3nc2s1 | > 100
CN=NN(C)C(=O)NC | > 100
N#CC(NNC(=O)Cc1ccccc1)c1ccccc1O (stereo unspecified) | 28.8
COc1cccc(OC)c1/C=C1\OC(=O)c2cccc(OC)c21 | > 31

Each compound was assayed on SNB-78 CNS (assay: NCI-60 cell line screen, 48 h).

Structure (SMILES) | TGI [µM]
Cc1cn2c(=O)c3ccccc3nc2s1 | > 100
N#CC(NNC(=O)Cc1ccccc1)c1ccccc1O (stereo unspecified) | > 100

These compounds were tested on OVCAR-4 ovarian (assay: NCI-60 cell line screen, 48 h).

Structure (SMILES) | TGI [µM]
CN(Nc1cc(=O)[nH]c(=O)[nH]1)c1ccccc1 | > 100
Cc1ccc(S(=O)(=O)C2=Cc3ccc(C(F)(F)F)cc3C2(O)c2cccc(C(F)(F)F)c2)cc1 (stereo unspecified) | 4.05
CC(C)=CCS(=O)c1ccccc1NC1=CC(=O)CC(C)(C)C1 (stereo unspecified) | > 100
Cc1cn2c(=O)c3ccccc3nc2s1 | > 100
CN=NN(C)C(=O)NC | > 100
N#CC(NNC(=O)Cc1ccccc1)c1ccccc1O (stereo unspecified) | > 100
COc1cccc(OC)c1/C=C1\OC(=O)c2cccc(OC)c21 | > 100

Each compound was assayed on RPMI-8226 leukemia (assay: NCI-60 cell line screen, 48 h).

Structure (SMILES) | TGI [µM]
CN(Nc1cc(=O)[nH]c(=O)[nH]1)c1ccccc1 | > 100
Cc1ccc(S(=O)(=O)C2=Cc3ccc(C(F)(F)F)cc3C2(O)c2cccc(C(F)(F)F)c2)cc1 (stereo unspecified) | > 23
CC(C)=CCS(=O)c1ccccc1NC1=CC(=O)CC(C)(C)C1 (stereo unspecified) | > 100
Cc1cn2c(=O)c3ccccc3nc2s1 | > 100
CN=NN(C)C(=O)NC | > 100
N#CC(NNC(=O)Cc1ccccc1)c1ccccc1O (stereo unspecified) | > 100
COc1cccc(OC)c1/C=C1\OC(=O)c2cccc(OC)c21 | > 100

These compounds were tested on LXFL 529 NSCLC (assay: NCI-60 cell line screen, 48 h).

Structure (SMILES) | TGI [µM]
Cc1cn2c(=O)c3ccccc3nc2s1 | > 100
CN=NN(C)C(=O)NC | > 100
N#CC(NNC(=O)Cc1ccccc1)c1ccccc1O (stereo unspecified) | > 100

These compounds were tested on MALME-3M melanoma (assay: NCI-60 cell line screen, 48 h).

Structure (SMILES) | TGI [µM]
CN(Nc1cc(=O)[nH]c(=O)[nH]1)c1ccccc1 | > 100
Cc1ccc(S(=O)(=O)C2=Cc3ccc(C(F)(F)F)cc3C2(O)c2cccc(C(F)(F)F)c2)cc1 (stereo unspecified) | 3.48
CC(C)=CCS(=O)c1ccccc1NC1=CC(=O)CC(C)(C)C1 (stereo unspecified) | > 100
Cc1cn2c(=O)c3ccccc3nc2s1 | > 100
CN=NN(C)C(=O)NC | > 100
N#CC(NNC(=O)Cc1ccccc1)c1ccccc1O (stereo unspecified) | 73.4
COc1cccc(OC)c1/C=C1\OC(=O)c2cccc(OC)c21 | > 95.5

The compounds below were run on HOP-62 NSCLC (assay: NCI-60 cell line screen, 48 h).

Structure (SMILES) | TGI [µM]
CN(Nc1cc(=O)[nH]c(=O)[nH]1)c1ccccc1 | > 100
Cc1ccc(S(=O)(=O)C2=Cc3ccc(C(F)(F)F)cc3C2(O)c2cccc(C(F)(F)F)c2)cc1 (stereo unspecified) | 18.8
CC(C)=CCS(=O)c1ccccc1NC1=CC(=O)CC(C)(C)C1 (stereo unspecified) | 0.855
Cc1cn2c(=O)c3ccccc3nc2s1 | > 100
CN=NN(C)C(=O)NC | > 100
N#CC(NNC(=O)Cc1ccccc1)c1ccccc1O (stereo unspecified) | > 70.6
COc1cccc(OC)c1/C=C1\OC(=O)c2cccc(OC)c21 | 56

The compounds below were run on NCI/ADR-RES ovarian (assay: NCI-60 cell line screen, 48 h).

Structure (SMILES) | TGI [µM]
CN(Nc1cc(=O)[nH]c(=O)[nH]1)c1ccccc1 | > 100
Cc1ccc(S(=O)(=O)C2=Cc3ccc(C(F)(F)F)cc3C2(O)c2cccc(C(F)(F)F)c2)cc1 (stereo unspecified) | 8.51
CC(C)=CCS(=O)c1ccccc1NC1=CC(=O)CC(C)(C)C1 (stereo unspecified) | > 100
N#CC(NNC(=O)Cc1ccccc1)c1ccccc1O (stereo unspecified) | > 74.6
COc1cccc(OC)c1/C=C1\OC(=O)c2cccc(OC)c21 | > 100

The compounds below were run on CCRF-CEM leukemia (assay: NCI-60 cell line screen, 48 h).

Structure (SMILES) | TGI [µM]
CN(Nc1cc(=O)[nH]c(=O)[nH]1)c1ccccc1 | > 100
Cc1ccc(S(=O)(=O)C2=Cc3ccc(C(F)(F)F)cc3C2(O)c2cccc(C(F)(F)F)c2)cc1 (stereo unspecified) | 8.17
CC(C)=CCS(=O)c1ccccc1NC1=CC(=O)CC(C)(C)C1 (stereo unspecified) | > 100
Cc1cn2c(=O)c3ccccc3nc2s1 | > 100
CN=NN(C)C(=O)NC | > 100
N#CC(NNC(=O)Cc1ccccc1)c1ccccc1O (stereo unspecified) | > 54.9
